The nature of data set [1]: solubility. In kind it is physicochemical.
In data set [2] the test system is carrageenin-induced oedema. Kind of data set: carrageenin-induced oedema test (anti-inflammatory activity). Type of data set: in vivo, albino male Wistar rats. How it is done: This effect was evaluated by means of an experimental model reproducing acute inflammation: for this purpose the carrageenin- induced oedema test was employed following the method described by C.
Albino male Wistar rats weighing 140-160 g were caged for 10 days at 22±1° C. and given a balanced diet and water ad libitum. Eighteen hours before the experiment the animals were randomized into groups of ten and fasted but with free access to water. Each dose was tested in three groups of rats. Each compound was given either orally, by gavage, or parenterally--intraperitoneal injection--administering as follows:
controls: 0.5% carboxymethylcellulose suspension in physiological saline, 10 ml/kg
treated: suspension of the compounds to be tested in the same vehicle and at the same volume (10 ml/kg) used for the controls at the doses specified below.
One hour after administration of the compounds and vehicle, in order to provoke the oedema for determining the protective effect of the substances under examination, each rat received, by subcutaneous injection into the plantar surface of the left paw, 0.1 ml of 1% sterile carrageenin suspension.

In the case of `CCOC(=O)CNC(=O)Cc1ccc(C(=O)c2ccc(C)cc2)n1C` [Compound 1-b, 1-methyl-5-p-toluoylpyrrole-2-acetamidoacetic acid ethyl ester], in data set [1], the Solubility entry is on record as “soluble in the usual organic solvents”.

With `COc1ccc2c(c1)c(CC(=O)O)c(C)n2C(=O)c1ccc(Cl)cc1` [Indomethacin, reference compound], the oedema % inhibition in data set [2] (2.5 mg/Kg per os, 2 h) was determined as 20.6%; in data set [2] (2.5 mg/Kg per os, 4 h), 33.7%; in data set [2] (2.5 mg/Kg per os, 6 h) it was 25.2%; in data set [2] (2.5 mg/Kg per os, 24 h) it was 6.0%; in data set [2] (2.5 mg/Kg per os, 48 h), 0.0%; in data set [2] (2.5 mg/Kg per os, 72 h) it was 0.0%. Also, the oedema % inhibition in data set [2] (2.5 mg/Kg, Table IV (route not given), 2 h) came to 25.7%; in data set [2] (2.5 mg/Kg, Table IV (route not given), 4 h) it was 38.0%; in data set [2] (2.5 mg/Kg, Table IV (route not given), 6 h) it was 30.0%; in data set [2] (2.5 mg/Kg, Table IV (route not given), 24 h), 5.0%; in data set [2] (2.5 mg/Kg, Table IV (route not given), 48 h), 0.0%; in data set [2] (2.5 mg/Kg, Table IV (route not given), 72 h), 0.0%. Also, the oedema % inhibition in data set [2] (5 mg/Kg per os, 2 h) worked out at 34.3%; in data set [2] (5 mg/Kg per os, 4 h), 45.9%; in data set [2] (5 mg/Kg per os, 6 h), 42.1%; in data set [2] (5 mg/Kg per os, 24 h) it was 4.2%; in data set [2] (5 mg/Kg per os, 48 h), 0.0%; in data set [2] (5 mg/Kg per os, 72 h), 0.0%. Moreover, the oedema % inhibition stood at 39.0% in data set [2] (5 mg/Kg, Table IV (route not given), 2 h); 50.1% in data set [2] (5 mg/Kg, Table IV (route not given), 4 h); 48.0% in data set [2] (5 mg/Kg, Table IV (route not given), 6 h); 7.0% in data set [2] (5 mg/Kg, Table IV (route not given), 24 h); 0.0% in data set [2] (5 mg/Kg, Table IV (route not given), 48 h); 0.0% in data set [2] (5 mg/Kg, Table IV (route not given), 72 h). The oedema % inhibition in data set [2] (10 mg/Kg per os, 2 h) worked out at 66.4%; in data set [2] (10 mg/Kg per os, 4 h), 53.2%; in data set [2] (10 mg/Kg per os, 6 h), 51.6%; in data set [2] (10 mg/Kg per os, 24 h), 20.0%; in data set [2] (10 mg/Kg per os, 48 h), 6.0%; in data set [2] (10 mg/Kg per os, 72 h), 0.0%. The oedema % inhibition in data set [2] (10 mg/Kg, Table IV (route not given), 2 h) came out at 70.8%; in data set [2] (10 mg/Kg, Table IV (route not given), 4 h), 66.6%; in data set [2] (10 mg/Kg, Table IV (route not given), 6 h), 65.0%; in data set [2] (10 mg/Kg, Table IV (route not given), 24 h), 16.0%; in data set [2] (10 mg/Kg, Table IV (route not given), 48 h), 0.0%; in data set [2] (10 mg/Kg, Table IV (route not given), 72 h), 0.0%.
